Laboratory results: US10974081B2, “Treatment and prevention of sleep disorders” (Purdue Pharma L.P., priority 2016, dated 2021)

Columns and labels:
[1] = In vivo renal clearance in humans; set-up: species or system human; conditions: for CL renal: male, human, urine
Description: Four healthy male subjects were administered each dose. Table 25 below provides the results in the form of the mean renal clearance, mean total amount excreted unchanged ad Compound (1D), and mean percentage dose excreted unchanged.

rat plasma = assay: Rat protein binding, equilibrium dialysis of rat plasma; assay type: in vitro ADME; conditions: 24 hours dialysis at 37° C.
Description: The extent of in vitro binding of Compound (1F), […], or W-212393 to rat plasma was determined as an assessment of the protein binding of each compound, i.e., compound unavailable for modulating receptor activity. Plasma from rats containing a tested compound in one chamber of a dialysis cell was dialyzed with PBS in the other chamber; thereafter, the supernatant from each chamber was analyzed for the concentration of the tested compound present. A cell suitable for equilibrium dialysis was used in the determinations. The dialysis membrane described in Example 10 (with molecular mass cutoff of 12,000-14,000 Da) separated the dialysis cell into two chambers. The membrane was soaked with purified water and PBS before being placed into the dialysis cell. 4 μL of an iv formulation of each tested compound was added to 996 μL of rat plasma, the latter obtained using syringe containing heparin and EDTA by the procedure described in Example 10, to provide a plasma sample with a tested compound concentration of 2 μg/mL. 450 μL of the plasma sample was applied to one chamber (plasma chamber) of the dialysis cell. A 450 μL aliquot of PBS was applied to the other chamber (PBS chamber) of the dialysis cell. The dialysis study was conducted in duplicate for each tested compound. After 24 hours of equilibrium dialysis at 37° C., 30 μL of liquid from the plasma chamber of the dialysis cell was collected and to this was added 270 μL of fresh PBS (this combination was designated Sample “1”). Then, 270 μL of liquid from the PBS chamber of the dialysis cell was collected and to this was added 30 μL of control rat plasma (i.e., rat plasma never exposed to any test compound, this combination was designated Sample “2”). Thereafter, each sample was mixed well and stored in a freezer until the next analysis step. After the protein precipitated in the freezer, each supernatant thusly obtained was analyzed by LC-MS-MS for unbound test compound. […] Thereafter, the percentage of rat protein-bound (“RPB”) tested compound was calculated as follows: […]

[2] = In vivo functional observational battery (FOB); conditions: male, Crl:CD(SD), rat, in vivo, po
rat liver microsomes = assay: In vitro metabolic stability, rat liver microsomes; assay type: in vitro ADME; conditions: 2 μM, % remaining after 30 minutes at 37° C.
Description: The comparative in vitro metabolic stabilities of Compounds (1F), […], and W-212393 were determined upon exposure to human liver microsomes or rat liver microsomes according to a procedure disclosed in, e.g., Example 14 of U.S. Pat. No. 9,290,488, which is hereby incorporated by reference in its entirety. Liver microsomes from Crj;CD rats or humans were incubated with 2 μM of each tested compound; thereafter, the supernatant was analyzed by HPLC-MS for the concentration of the tested compound present. Human liver microsomes, pooled, 20 mg/mL, were obtained from […] #H0610). […] Alternatively and if desired, rat liver microsomes can be obtained commercially from, e.g., XenoTech (Sprague-Dawley rat liver microsomes, pooled, 20 mg/mL, cat #R1000). β-NADPH (β-nicotinamide adenine dinucleotide 2'-phosphate reduced tetrasodium salt hydrate) was obtained from Oriental Yeast Co., Ltd. (Tokyo, Japan). Each tested compound, present at an initial concentration of 2 μM, was incubated at 37° C. in the presence of 0.5 mg/mL of either human microsomes or rat microsomes in suspension in 50 mM Tris-HCl buffer (7.4 pH), 150 mM KCl, 10 mM MgCl2, and 1 mM β-NADPH. Incubation was initiated upon the addition of a 100-fold concentrated solution of the tested compound to one of the microsome preparations. Incubation was terminated by addition of a two-fold volume of a 1/1 mixture of acetonitrile/methanol after either 0 minutes or 30 minutes of incubation at 37° C. Thereafter, proteins and other macromolecules from the microsome preparation were removed by centrifugation. All incubations were conducted in duplicate. […] The HPLC system consisted of a Waters 2795 separations module (Waters Corp., Milford, Mass.) equipped with an inline degasser, temperature controlled auto-sampler, and column oven. The analytical column was a Waters […], 2.1 mm×20 mm column. The mass analyzer was a Waters ZQ, single quadrupole mass spectrometer equipped with an electrospray ionization source operating in the positive ionization mode and utilizing a stainless steel spray capillary. […]

Structure (SMILES) | absorption from the gastrointestinal tract ([1]; 3 mg oral dose, aqueous suspension) | Mean % Dose Excreted Unchanged ([1]; 3.0 mg single oral dose) [%] | Mean Total Amount Excreted Unchanged ([1]; 3.0 mg single oral dose) [mg] | Mean % Dose Excreted Unchanged ([1]; 10 mg single oral dose) [%] | Mean Total Amount Excreted Unchanged ([1]; 10 mg single oral dose) [mg] | Mean % Dose Excreted Unchanged ([1]; 30 mg single oral dose) [%] | Mean Total Amount Excreted Unchanged ([1]; 30 mg single oral dose) [mg] | renal elimination mechanism ([1]; in addition to glomerular filtration) | CL renal ([1]; 3.0 mg single oral dose) [mL/min] | CL renal ([1]; 10 mg single oral dose) [mL/min] | CL renal ([1]; 30 mg single oral dose) [mL/min] | excretion in human urine ([1]; single oral doses 3, 10, 30 mg) | stability in rat plasma during the determination (rat plasma) | NOAEL [2] [mg/kg] | Rat Metabolic Stability (%) (rat liver microsomes)
O=C(O)c1nc2ccccc2n([C@H]2C[C@H]3CCC[C@@H](C2)N3C2CC3CCCC(C3)C2)c1=O (stereo partly drawn) [Compound (1D)] | essentially completely absorbed | 89 | 2.66 | 70 | 6.95 | 28 | 8.37 | active renal tubular secretion | 275 | 266 | 270 | excreted largely unchanged | – | – | –
CNC(=O)Cn1c(=O)n(C2CCN([C@@H]3Cc4cccc5cccc3c45)CC2)c2ccccc21 [Compound W-212393] | – | – | – | – | – | – | – | – | – | – | – | – | unstable in plasma | 1 | 58.4
